#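 48-hour exposure; five concentrations; linearly interpolated endpoints. Abbreviation: GI50, concentration required for 50% inhibition of growth. TGI: total growth inhibition.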
# How the values were obtained:
# Assay in all cases: NCI anticancer screen, dose series, 48 h
# OVCAR-5 ovarian = tested on: OVCAR-5 ovarian
# OVCAR-4 ovarian = tested on: OVCAR-4 ovarian
# SNB-75 CNS = tested on: SNB-75 CNS
# SW-620 colon = tested on: SW-620 colon
# HL-60(TB) leukemia = tested on: HL-60(TB) leukemia
# IGROV1 ovarian = tested on: IGROV1 ovarian
# RXF 393 renal = tested on: RXF 393 renal
# OVCAR-8 ovarian = tested on: OVCAR-8 ovarian
# U251 CNS = tested on: U251 CNS
# HCT-15 colon = tested on: HCT-15 colon
# KM12 colon = tested on: KM12 colon
# CAKI-1 renal = tested on: CAKI-1 renal
# MALME-3M melanoma = tested on: MALME-3M melanoma
# HS 578T breast = tested on: HS 578T breast
# HCC-2998 colon = tested on: HCC-2998 colon
# A549 NSCLC = tested on: A549 NSCLC
# MCF7 breast = tested on: MCF7 breast
# UACC-257 melanoma = tested on: UACC-257 melanoma
# HCT-116 colon = tested on: HCT-116 colon
# NCI-H522 lung = tested on: NCI-H522 lung
# MDA-MB-231 breast = tested on: MDA-MB-231 breast
# EKVX NSCLC = tested on: EKVX NSCLC
# SF-268 CNS = tested on: SF-268 CNS
# SK-MEL-5 melanoma = tested on: SK-MEL-5 melanoma
# OVCAR-3 ovarian = tested on: OVCAR-3 ovarian
# HOP-92 NSCLC = tested on: HOP-92 NSCLC
# SK-MEL-28 melanoma = tested on: SK-MEL-28 melanoma
# HT29 colon = tested on: HT29 colon
# NCI-H23 lung = tested on: NCI-H23 lung
# MDA-MB-435 = tested on: MDA-MB-435
# TK-10 renal = tested on: TK-10 renal
# SK-MEL-2 melanoma = tested on: SK-MEL-2 melanoma
# ACHN renal = tested on: ACHN renal
# SK-OV-3 ovarian = tested on: SK-OV-3 ovarian
# NCI-H226 lung = tested on: NCI-H226 lung
# UO-31 renal = tested on: UO-31 renal
# BT-549 breast = tested on: BT-549 breast
# SNB-19 CNS = tested on: SNB-19 CNS
# RPMI-8226 leukemia = tested on: RPMI-8226 leukemia
# 786-0 renal = tested on: 786-0 renal
# DU-145 prostate = tested on: DU-145 prostate
# A498 renal = tested on: A498 renal
# NCI/ADR-RES ovarian = tested on: NCI/ADR-RES ovarian
# PC-3 prostate = tested on: PC-3 prostate
# SF-295 CNS = tested on: SF-295 CNS
# MOLT-4 leukemia = tested on: MOLT-4 leukemia
# T-47D breast = tested on: T-47D breast
# LOX IMVI melanoma = tested on: LOX IMVI melanoma
# UACC-62 melanoma = tested on: UACC-62 melanoma
# HOP-62 NSCLC = tested on: HOP-62 NSCLC
# SR leukemia = tested on: SR leukemia
# M14 melanoma = tested on: M14 melanoma
# CCRF-CEM leukemia = tested on: CCRF-CEM leukemia
# COLO 205 colon = tested on: COLO 205 colon
# SF-539 CNS = tested on: SF-539 CNS
# NCI-H460 lung = tested on: NCI-H460 lung
# K-562 leukemia = tested on: K-562 leukemia
# SN12C renal = tested on: SN12C renal
compound,measurement,setting,value
CCN(c1cc(C#CCN2CCOCC2)cc(C(=O)NCc2c(C)cc(C)[nH]c2=O)c1C)C1CCC(N(C)CCOC)CC1 (stereo unspecified),GI50,OVCAR-5 ovarian,> 100 µM
same,TGI,OVCAR-5 ovarian,> 100 µM
same,GI50,OVCAR-4 ovarian,> 100 µM
same,TGI,OVCAR-4 ovarian,> 100 µM
same,GI50,SNB-75 CNS,53.1 µM
same,TGI,SNB-75 CNS,> 100 µM
same,GI50,SW-620 colon,> 100 µM
same,TGI,SW-620 colon,> 100 µM
same,GI50,HL-60(TB) leukemia,> 100 µM
same,TGI,HL-60(TB) leukemia,> 100 µM
same,GI50,IGROV1 ovarian,> 100 µM
same,TGI,IGROV1 ovarian,> 100 µM
same,GI50,RXF 393 renal,> 100 µM
same,TGI,RXF 393 renal,> 100 µM
same,GI50,OVCAR-8 ovarian,> 100 µM
same,TGI,OVCAR-8 ovarian,> 100 µM
same,GI50,U251 CNS,> 100 µM
same,TGI,U251 CNS,> 100 µM
same,GI50,HCT-15 colon,> 100 µM
same,TGI,HCT-15 colon,> 100 µM
same,GI50,KM12 colon,> 100 µM
same,TGI,KM12 colon,> 100 µM
same,GI50,CAKI-1 renal,> 100 µM
same,TGI,CAKI-1 renal,> 100 µM
same,GI50,MALME-3M melanoma,> 100 µM
same,TGI,MALME-3M melanoma,> 100 µM
same,GI50,HS 578T breast,> 100 µM
same,TGI,HS 578T breast,> 100 µM
same,GI50,HCC-2998 colon,> 100 µM
same,TGI,HCC-2998 colon,> 100 µM
same,GI50,A549 NSCLC,> 100 µM
same,TGI,A549 NSCLC,> 100 µM
same,GI50,MCF7 breast,> 100 µM
same,TGI,MCF7 breast,> 100 µM
same,GI50,UACC-257 melanoma,> 100 µM
same,TGI,UACC-257 melanoma,> 100 µM
same,GI50,HCT-116 colon,> 100 µM
same,TGI,HCT-116 colon,> 100 µM
same,GI50,NCI-H522 lung,> 100 µM
same,TGI,NCI-H522 lung,> 100 µM
same,GI50,MDA-MB-231 breast,> 100 µM
same,TGI,MDA-MB-231 breast,> 100 µM
same,GI50,EKVX NSCLC,> 100 µM
same,TGI,EKVX NSCLC,> 100 µM
same,GI50,SF-268 CNS,> 100 µM
same,TGI,SF-268 CNS,> 100 µM
same,GI50,SK-MEL-5 melanoma,> 100 µM
same,TGI,SK-MEL-5 melanoma,> 100 µM
same,GI50,OVCAR-3 ovarian,> 100 µM
same,TGI,OVCAR-3 ovarian,> 100 µM
same,GI50,HOP-92 NSCLC,> 100 µM
same,TGI,HOP-92 NSCLC,> 100 µM
same,GI50,SK-MEL-28 melanoma,> 100 µM
same,TGI,SK-MEL-28 melanoma,> 100 µM
same,GI50,HT29 colon,> 100 µM
same,TGI,HT29 colon,> 100 µM
same,GI50,NCI-H23 lung,> 100 µM
same,TGI,NCI-H23 lung,> 100 µM
same,GI50,MDA-MB-435,> 100 µM
same,TGI,MDA-MB-435,> 100 µM
same,GI50,TK-10 renal,> 100 µM
same,TGI,TK-10 renal,> 100 µM
same,GI50,SK-MEL-2 melanoma,> 100 µM
same,TGI,SK-MEL-2 melanoma,> 100 µM
same,GI50,ACHN renal,> 100 µM
same,TGI,ACHN renal,> 100 µM
same,GI50,SK-OV-3 ovarian,> 100 µM
same,TGI,SK-OV-3 ovarian,> 100 µM
same,GI50,NCI-H226 lung,> 100 µM
same,TGI,NCI-H226 lung,> 100 µM
same,GI50,UO-31 renal,> 100 µM
same,TGI,UO-31 renal,> 100 µM
same,GI50,BT-549 breast,> 100 µM
same,TGI,BT-549 breast,> 100 µM
same,GI50,SNB-19 CNS,> 100 µM
same,TGI,SNB-19 CNS,> 100 µM
same,GI50,RPMI-8226 leukemia,7.13 µM
same,TGI,RPMI-8226 leukemia,> 100 µM
same,GI50,786-0 renal,> 100 µM
same,TGI,786-0 renal,> 100 µM
same,GI50,DU-145 prostate,> 100 µM
same,TGI,DU-145 prostate,> 100 µM
same,GI50,A498 renal,> 100 µM
same,TGI,A498 renal,> 100 µM
same,GI50,NCI/ADR-RES ovarian,> 100 µM
same,TGI,NCI/ADR-RES ovarian,> 100 µM
same,GI50,PC-3 prostate,> 100 µM
same,TGI,PC-3 prostate,> 100 µM
same,GI50,SF-295 CNS,> 100 µM
same,TGI,SF-295 CNS,> 100 µM
same,GI50,MOLT-4 leukemia,> 100 µM
same,TGI,MOLT-4 leukemia,> 100 µM
same,GI50,T-47D breast,> 100 µM
same,TGI,T-47D breast,> 100 µM
same,GI50,LOX IMVI melanoma,> 100 µM
same,TGI,LOX IMVI melanoma,> 100 µM
same,GI50,UACC-62 melanoma,> 100 µM
same,TGI,UACC-62 melanoma,> 100 µM
same,GI50,HOP-62 NSCLC,> 100 µM
same,TGI,HOP-62 NSCLC,> 100 µM
same,GI50,SR leukemia,27 µM
same,TGI,SR leukemia,> 100 µM
same,GI50,M14 melanoma,> 100 µM
same,TGI,M14 melanoma,> 100 µM
same,GI50,CCRF-CEM leukemia,> 100 µM
same,TGI,CCRF-CEM leukemia,> 100 µM
same,GI50,COLO 205 colon,> 100 µM
same,TGI,COLO 205 colon,> 100 µM
same,GI50,SF-539 CNS,> 100 µM
same,TGI,SF-539 CNS,> 100 µM
same,GI50,NCI-H460 lung,> 100 µM
same,TGI,NCI-H460 lung,> 100 µM
same,GI50,K-562 leukemia,> 100 µM
same,TGI,K-562 leukemia,> 100 µM
same,GI50,SN12C renal,> 100 µM
same,TGI,SN12C renal,> 100 µM
